Results published in patent US5723103A, “Substituted benzamides and radioligand analogs and methods of use” (Vanderbilt University, priority 1994, dated 1998).
Like-named read-outs stand apart in the source and are kept apart here.

Key:
[1] = Apparent lipophilicity from reverse-phase HPLC at pH 7.4; format: physicochemical; conditions: not told
Source text: (b) Extrapolated reverse phase capacity factors in MOPS buffer at pH 7.4.

5-HT-3 receptor [2] = conditions: literature, cited from earlier work
emesis = conditions: literature; cited from earlier work
drug-induced anxiety = conditions: literature; cited from earlier work
5-HT-3 receptor [3] = target: T1, 5-HT-3 receptor (Rattus norvegicus, UniProt P35563)
T1 sequence (P35563 24-483): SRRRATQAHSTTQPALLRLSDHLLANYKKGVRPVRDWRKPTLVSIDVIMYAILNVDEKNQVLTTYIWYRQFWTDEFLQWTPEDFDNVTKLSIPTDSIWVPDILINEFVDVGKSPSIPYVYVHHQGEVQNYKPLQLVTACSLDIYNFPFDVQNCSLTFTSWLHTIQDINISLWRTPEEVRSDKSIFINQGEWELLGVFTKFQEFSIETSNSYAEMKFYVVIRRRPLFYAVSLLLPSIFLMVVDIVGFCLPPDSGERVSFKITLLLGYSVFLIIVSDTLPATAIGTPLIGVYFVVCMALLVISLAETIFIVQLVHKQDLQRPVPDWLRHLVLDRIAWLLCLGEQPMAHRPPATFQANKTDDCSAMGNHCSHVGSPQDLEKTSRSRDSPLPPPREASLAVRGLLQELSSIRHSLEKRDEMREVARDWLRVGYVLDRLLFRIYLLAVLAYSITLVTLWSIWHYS
Method: Evaluation of the compounds of the present invention was performed by incubating the radiolabeled agent with tissue homogenates known to contain these receptors. By inhibiting the binding with various concentrations of competing ligands the relative potencies of unlabeled analogs were determined. The apparent lipophilicities of the compounds of the invention were estimated from the retention times in reverse-phase HPLC at pH 7.4.

animal behavioral models = conditions: literature; cited from earlier work
5-HT-3 receptor [4] = target: T1, 5-HT-3 receptor; format: binding; set-up: from tissue; host or cells: rat entorhinal cortex homogenate / membranes; conditions: rat entorhinal cortex
Source text: In all FIGS. 1-3, triangles represent total binding, open circles represent non-specific binding, and darkened circles represent specific binding.

[5] = extrapolated reverse phase capacity factors in MOPS buffer, read-out: log Papp (apparent lipophilicity)
[6] = Ki, displacement of 0.64 nM [^125 I]-4 binding, Table 3, rat entorhinal cortex homogenate, HEPES buffer, nine concentrations 0.3 to 300 nM, triplicates

SMILES | chromatographic logD [1, 5] | further results
CCCOc1c(I)cc(Cl)cc1C(=O)N[C@@H]1CN2CCC1CC2 [TDP 1065] | 2.7 | 
COc1cc(Cl)cc(C(=O)N[C@@H]2CN3CCC2CC3)c1OC/C=C/I [TDP 984] | 2.58 | 
CC(C)Oc1ccc(I)cc1C(=O)N[C@@H]1CN2CCC1CC2 [TDP 919] | 2.52 | 
COc1ccc(Br)cc1C(=O)N[C@@H]1CN2CCC1CC2 [TDP 922] | 2.02 | 
COc1cc(N)c(Cl)cc1C(=O)N[C@@H]1CN2CCC1CC2 [(S)-zacopride, 5-chloro-4-amino-2-methoxy-N-(3-quinuclidinyl)benzamide] |  | Ki (5-HT-3 receptor [2]; (S)-form of zacopride): 0.3 nM; antiemetic activity (emesis): effective antiemetic agent; block of drug-induced anxiety (drug-induced anxiety): inactive; Ki (5-HT-3 receptor [3]; [6]): 0.38 nM
O=C(N[C@@H]1CN2CCC1CC2)c1cc(Cl)cc(I)c1OCCCF [TDP 1050] | 2.38 | 
COc1cc(Br)cc(C(=O)N[C@@H]2CN3CCC2CC3)c1OC [TDP 923] | 1.74 | 
CCN1CCC[C@H]1CNC(=O)c1cc(I)cc(OC)c1OC [epidepride] |  | Ki (5-HT-3 receptor [3]): 1040 nM
c1ccc2nc(N3CCNCC3)ccc2c1 [quipazine] |  | Ki (5-HT-3 receptor [3]; [6]): 0.48 nM
COc1cc(N)c(Cl)cc1C(=O)N[C@H]1CN2CCC1CC2 [(R)-zacopride, 5-chloro-4-amino-2-methoxy-N-(3-quinuclidinyl)benzamide] |  | affinity for the 5-HT-3 receptor relative to (S)-zacopride (5-HT-3 receptor [2]): ten times lower affinity; cognitive-enhancing properties (animal behavioral models): shows cognitive-enhancing properties; block of drug-induced anxiety (drug-induced anxiety): able to block drug-induced anxiety
COc1ccc(I)cc1C(=O)N[C@@H]1CN2CCC1CC2 [TDP 915] | 2.15 | 
CCOc1c(OC)cc(I)cc1C(=O)N[C@@H]1CN2CCC1CC2 [TDP 1022] | 2.19 | 
CC(C)Oc1c(I)cc(Cl)cc1C(=O)N[C@@H]1CN2CCC1CC2 [TDP 1062] | 2.45 | 
COc1c(OCCF)cc(Cl)cc1C(=O)N[C@@H]1CN2CCC1CC2 [TDP 999] | 1.7 | 
C#CCOc1c(I)cc(Cl)cc1C(=O)N[C@@H]1CN2CCC1CC2 [TDP 1053] | 2.57 | 
COc1c(I)cc(Cl)cc1C(=O)N[C@@H]1CN2CCC1CC2 [TDP 1040] |  | chromatographic logD [1]: 2.34

SMILES | chromatographic logD [1, 5] | further results
C=CCOc1ccc(I)cc1C(=O)N[C@@H]1CN2CCC1CC2 [TDP 918] | 2.76 | 
C=CCOc1c(I)cc(Cl)cc1C(=O)N[C@@H]1CN2CCC1CC2 [TDP 1046] | 2.63 | 
O=C(N[C@@H]1CN2CCC1CC2)c1cc(I)ccc1OCCF [TDP 920] | 2.15 | 
COc1ccc(F)cc1C(=O)N[C@@H]1CN2CCC1CC2 [TDP 1087] | 1.34 | 
CCOc1ccc(I)cc1C(=O)N[C@@H]1CN2CCC1CC2 [TDP 916] | 2.38 | 
COc1cc(Cl)cc(C(=O)N[C@@H]2CN3CCC2CC3)c1OCCF [TDP 994] | 1.58 | 
CCOc1c(I)cc(Cl)cc1C(=O)N[C@@H]1CN2CCC1CC2 [TDP 1059] | 2.47 | 
COc1cc(I)cc(C(=O)N[C@@H]2CN3CCC2CC3)c1OC [TDP 960] | 1.87 | Ki (5-HT-3 receptor [3]; [6]): 1.35 nM
CN1[C@@H]2CC[C@H]1C[C@@H](OC(=O)c1cc(Cl)cc(Cl)c1)C2 [bemestron] |  | Ki (5-HT-3 receptor [3]; [6]): 18.3 nM
COc1cc([125I])cc(C(=O)N[C@@H]2CN3CCC2CC3)c1OC [[^125 I]-4, (S)-N-[3-(1-azabicyclo[2.2.2]octyl)]-2,3-dimethoxy-5-[^125 I]iodobenzamide] |  | Kd (5-HT-3 receptor [4]): 1.5 nM
COc1cc(I)cc(C(=O)N[C@H]2CN3CCC2CC3)c1OC [TDP 991, (R)-N-[3-1-Azabicyclo [2.2.2.]octyl]-5-iodo-2,3-dimethoxy-benzamide] | 1.87 | Ki (5-HT-3 receptor [3]; [6]): 19 nM
O=C(N[C@@H]1CN2CCC1CC2)c1cc(Cl)cc(I)c1OCCF [TDP 1056] | 1.95 | 
CCOc1cc(Br)cc(C(=O)N[C@@H]2CN3CCC2CC3)c1OC [TDP 924] | 2.14 | 
CCCOc1ccc(I)cc1C(=O)N[C@@H]1CN2CCC1CC2 [TDP 9l7] | 2.81 | 
O=C(N[C@@H]1CN2CCC1CC2)c1cc(I)ccc1OCCCF [TDP 921] | 2.44 | 
